Data as given in US9353152B2, “Induction of the mitochondrial permeability transition” (NewSouth Innovations Pty Limited, priority 2002, dated 2016).

Key:
Rat liver mitochondria = format: biochemical; details: 100 μM GSAO, 0-60 min
[1] = Side-effects in Balb-C nude mice bearing BxPC-3 tumours; format: in vivo; details: 1 or 10 mg/kg/day s.c.
Method: Female 7 to 9 week old Balb C nude were used (UNSW Biological Resource Centre). Mice were held in groups of 3 to 5 at a 12 h day and night cycle and were given animal chow and water ad libidum. A suspension of 2.5×10^6 BxPC-3 cells in 0.2 mL of PBS was injected subcutaneously in the proximal midline. Tumours were allowed to establish and grow to a size of ˜40 mm^3 after which they were randomised into four groups. Tumour volume was calculated using the relationship, a·b^2·0.52, where a is the longest and b the shortest diameter. Animals were treated with either GSAO or o-GSAO at a dose 1 or 10 mg/kg/day in 0.1 mL of PBS. The compounds were administered subcutaneously at a site distant from the tumour. Tumour volume and animal weight was measured every 2 or 3 days.
Balb-C nude mice bearing ˜40 mm^3 BxPC-3 tumours were randomised into four groups (n=10 or 11 per group) and treated subcutaneously with either GSAO (part A) or o-GSAO (part B) at 1 or 10 mg/kg/day in 0.1 mL of PBS. Parts C and D are the mice weights for the respective groups, where the arrow indicates start of treatment. The data points are the mean±SE of the tumour volumes or mice weights. Treatment with 10 mg/kg o-GSAO (part B) was stopped at day 14 due to necrosis and inflammation at sites of injection in 7 out of 11 mice (3/11 with severe ulcers, 4/11 with medium ulcers).

[2] = tested on: bovine vascular smooth muscle cells; experiment: Proliferation arrest; format: cell-based
Method: To distinguish between the anti-proliferative and pro-apoptotic effects of GSAO, treated cells were stained with propidium iodide (PI) to detect late-apoptotic or dead cells. The total number of cells and the proportion of cells that were PI-positive following 48 h treatment with GSAO were measured by flow cytometry.

BAE cells [3] = experiment: Mitochondrial membrane potential (JC-1) and apoptosis (annexin V) by flow cytometry; format: cell-based, bovine; details: 10% serum, 48 h
Method: For measurements of superoxide levels with dihydroethidine, mitochondrial membrane potential with JC-1, mitochondrial mass with nonyl acridine orange, and apoptosis with annexin V, proliferating or growth-quiescent BAE cells were treated for 24 or 48 h with GSAO in six-well culture plates, then detached with trypsin/EDTA, washed once, and resuspended at 2×10^6 cells per mL in serum-free medium. Cells were then incubated for 15 min at room temperature with dihydroethidine (5 μM, Molecular Probes) or 30 min at room temperature with JC-1 (0.5 μg·mL^−1, Molecular Probes), annexin V-FITC (50 μl·mL^−1) (Pharmingen, La Jolla, Calif., USA), or acridine orange 10-nonyl bromide (5 μM, Molecular Probes). Cells were then washed once, resuspended in 0.5 mL serum-free medium, transferred to ice, and fluorescence was quantitated immediately by flow cytometry.

BxPC-3 tumours = experiment: Immunohistochemistry of tumour sections (CD31, PCNA, TUNEL); format: in vivo, SCID mice; details: day 31, GSAO- versus GSAA-treated tumours
Excerpt: Tumours were fixed in Buffered Formalde-Fresh (Fisher Scientific, Fair Lawn, N.J.), embedded in paraffin and 5 μm thick sections were cut and placed on glass slides. Sections were stained with haematoxylin and eosin or for CD31, PCNA (Holmgren et al., 1995) or fragmented DNA (Gavrielli et al., 1992). […] The proliferative index was estimated by the percentage of cells scored under 400× magnification. A minimum of 1000 cells was counted in two separate sections. The apoptotic index was estimated by the percentage of cells scored under 400× magnification. A minimum of 1500 cells was counted in two separate sections.

BAE cells [4] = experiment: ATP assay (luciferin/luciferase); format: cell-based, bovine; details: 150 μM GSAO, 24 h
Method: BAE cells in six-well culture plates were arrested for 24 h in 0.5% serum or left in 10% serum, then treated for 24 h with 0, 60 or 150 μM GSAO. The cells were washed once then resuspended in 0.4 mL PBS containing 0.3% bovine serum albumin. A 50 μl sample of cells was mixed with 50 μL water and 100 μL ATP releasing agent (Sigma) and ATP concentration was measured using a luciferin/luciferase ATP assay mix (Sigma). Light units were converted to ATP concentrations using an ATP standard in place of the 50 μL water. Cell number was counted using a Beckman Coulter Counter and mol of ATP was expressed per million cells.

ANT Cys^160 = biological target: T1, ANT Cys^160 (Rattus norvegicus, UniProt Q09073); experiment: Labelling of ANT with eosin-5-maleimide (competition); format: binding; details: 200 nmol GSAO per mg of protein, sub-mitochondrial particles
T1 construct: Rat liver sub-mitochondrial particles were prepared by sonication and differential centrifugation; from tissue; host or cells: rat liver sub-mitochondrial particles
T1 sequence (Q09073 1-298): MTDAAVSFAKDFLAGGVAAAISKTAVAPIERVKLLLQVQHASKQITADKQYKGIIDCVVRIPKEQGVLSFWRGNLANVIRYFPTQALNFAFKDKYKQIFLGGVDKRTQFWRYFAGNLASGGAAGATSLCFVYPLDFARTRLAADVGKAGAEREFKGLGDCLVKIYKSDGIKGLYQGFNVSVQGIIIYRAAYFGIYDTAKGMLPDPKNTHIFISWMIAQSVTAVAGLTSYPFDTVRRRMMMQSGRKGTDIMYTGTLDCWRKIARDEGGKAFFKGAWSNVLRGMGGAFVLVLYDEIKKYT
Method: Rat liver sub-mitochondrial particles were prepared by sonication and differential centrifugation according to Majima et al. (1998). The particles were suspended at 20 mg of protein per mL in 10 mM Tris, pH 7.2 buffer containing 250 mM sucrose and 0.2 mM EDTA and incubated without or with 200 nmol GSAO per mg of protein for 10 min at 25° C., followed by 20 nmol of eosin-5-maleimide per mg of protein for 1 min at 0° C. in the dark. The labelling was terminated by addition of 10 μmol of dithiothreitol per mg of protein. The proteins were resolved on 4-20% gradient iGels and the eosin-labelled ANT was visualised by UV transillumination using a Fluor-S™ Multilmager (Bio-Rad, Hercules, Calif.).

BAE cells [5] = details: read-out: IC50 (μM)*

## N[C@@H](CCC(=O)N[C@@H](CSCC(=O)Nc1ccc([As]=O)cc1)C(=O)NCC(=O)O)C(=O)O (stereo partly shown) [GSAO, 4-(N—(S-glutathionylacetyl)amino)-phenylarsenoxide]
Rat liver mitochondria
  release of Cytochrome C into the medium: triggered time-dependent release
[1]
  side-effects (behavioural, skin necrosis, weight loss) with GSAO administration: not observed
[2]
  IC50: ~30 µM
BAE cells [3]
  mitochondrial depolarisation (JC-1) and apoptosis (annexin V binding): triggered mitochondrial depolarisation and induced apoptosis
BxPC-3 tumours
  proliferative index (PCNA): the same
BxPC-3 tumours; p<0.001
  blood vessel density (CD31): significant reduction
BxPC-3 tumours; p=0.05
  apoptotic index (TUNEL): significant increase
BAE cells [4]
  cellular ATP levels in proliferating BAE cells: reduced ATP levels in proliferating cells to that of growth-quiescent cells
ANT Cys^160
  competition for eosine-maleimide alkylation of ANT Cys^160: competed
BAE cells [5]
  IC50: 8.28 µM
